Source: patent publication US10538555B2, “Macrocyclic inhibitors of the PD-1/PD-L1 and CD80(B7-1)/PD-L1 protein/protein interactions” (BRISTOL-MYERS SQUIBB COMPANY, priority 2014, dated 2020)
*1 amine or outer side, *2 acyl side, *3 side chain or, on linkers, in order; H or OH if unused. Where a SMILES comes first, the peptide text is derived from it. Bridges are numbered along the chain shown (N, C = ends). [ ]: non-standard residue; d: D form. Trp(βS-Me) = C[C@@H](c1c[nH]c2ccccc12)[C@H](N)C(=O)O; Phe(3,4,5-F3) = N[C@@H](Cc1cc(F)c(F)c(F)c1)C(=O)O; d(cisHyp) = O=C(O)[C@H]1C[C@@H](O)CN1; NMeY = CN[C@@H](Cc1ccc(O)cc1)C(=O)O; Hyp = O=C(O)[C@@H]1C[C@@H](O)CN1; NMeF = CN[C@@H](Cc1ccccc1)C(=O)O; X1 = O=C([C@H]1COCCN1[*:1])[*:2]; dNMeF = CN[C@H](Cc1ccccc1)C(=O)O; dHyp = O=C(O)[C@H]1C[C@H](O)CN1; NMeNle = CCCC[C@H](NC)C(=O)O; Tle = CC(C)(C)[C@H](N)C(=O)O; NMeA = CN[C@@H](C)C(=O)O; Orn = NCCC[C@H](N)C(=O)O; Dab = NCC[C@H](N)C(=O)O

Target: T1, Human PD-L1/PD-1 (Homo sapiens, UniProt Q9NZQ7)
T1 construct: TVMV protease cleavage site (C); made in house; host or cells: HEK293T cells
T1 sequence (Q9NZQ7 with tags, fused parts or gaps): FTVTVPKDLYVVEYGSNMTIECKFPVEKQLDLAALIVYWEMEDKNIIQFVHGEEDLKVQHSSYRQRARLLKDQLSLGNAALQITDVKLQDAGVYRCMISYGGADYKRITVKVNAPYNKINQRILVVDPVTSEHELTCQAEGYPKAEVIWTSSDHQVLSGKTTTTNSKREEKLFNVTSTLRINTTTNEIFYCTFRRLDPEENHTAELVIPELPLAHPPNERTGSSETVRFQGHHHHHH
Assay: HTRF Human PD-L1/PD-1 binding assay (PD-1-Ig/PD-L1-His)
Settings: PD-L1-His 10 nM, PD-1-Ig 20 nM; class symbol; read-out: HTRF Human PD-L1/PD-1 Binding Assay IC50 Range
Outline: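 Inhibitors were preincubated 15 min with human PD-L1(18-239)-His (10 nM final), then PD-1(25-167)-Ig (20 nM final) was added for 15 min in dPBS/0.1% BSA/0.05% Tween-20. Eu-cryptate anti-Ig (1 nM) and APC anti-His (20 nM) were added; 665/620 nm ratio read after 30 min.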

| IC50 | SMILES |
| --- | --- |
| 10 to 99.9 nM | CCCC[C@H]1C(=O)N2CCOC[C@@H]2C(=O)N[C@@H](CC(=O)O)C(=O)N[C@@H](C(C)C)C(=O)N(C)[C@@H](Cc2ccccc2)C(=O)N[C@@H](CCN)C(=O)N2CCOC[C@@H]2C(=O)N[C@@H](Cc2c[nH]c3ccccc23)C(=O)N[C@@H](Cc2ccc(O)cc2)C(=O)N[C@@H](CCC(=O)O)C(=O)N[C@H](C(=O)NCC(N)=O)CSCC(=O)N[C@@H](Cc2cc(F)c(F)c(F)c2)C(=O)N(C)[C@@H](Cc2ccc(O)cc2)C(=O)N1C [Example 10628] ({CH2CO}-[Phe(3,4,5-F3)][NMeY][NMeNle][X1]DV[NMeF][Dab][X1]WYECG-NH2; thioether N-13) |
| 10 to 99.9 nM | CCCC[C@H]1C(=O)N2CCC[C@@H]2C(=O)N[C@@H](CC(=O)O)C(=O)N[C@@H](C(C)C)C(=O)N(C)[C@@H](Cc2ccccc2)C(=O)N[C@@H](CCC(=O)O)C(=O)N2C[C@H](O)C[C@@H]2C(=O)N[C@@H](Cc2c[nH]c3ccccc23)C(=O)N[C@@H](Cc2ccc(O)cc2)C(=O)N[C@@H](CC(C)C)C(=O)N[C@H](C(=O)NCC(N)=O)CSCC(=O)N[C@@H](Cc2cc(F)c(F)c(F)c2)C(=O)N(C)[C@@H](Cc2ccc(O)cc2)C(=O)N1C [Example 10629] ({CH2CO}-[Phe(3,4,5-F3)][NMeY][NMeNle][dP]DV[NMeF]E[d(cisHyp)]WYLCG-NH2; thioether N-13) |
| 10 to 99.9 nM | CCCC[C@H]1C(=O)N2CCC[C@@H]2C(=O)N[C@@H](CC(=O)O)C(=O)N[C@@H](C(C)C)C(=O)N(C)[C@@H](Cc2ccccc2)C(=O)N[C@@H](CCC(=O)O)C(=O)N2C[C@H](O)C[C@@H]2C(=O)N[C@@H](Cc2c[nH]c3ccccc23)C(=O)N[C@@H](Cc2ccc(O)cc2)C(=O)N[C@@H](CCC(N)=O)C(=O)N[C@H](C(=O)NCC(N)=O)CSCC(=O)N[C@@H](Cc2cc(F)c(F)c(F)c2)C(=O)N(C)[C@@H](Cc2ccc(O)cc2)C(=O)N1C [Example 10631] ({CH2CO}-[Phe(3,4,5-F3)][NMeY][NMeNle][dP]DV[NMeF]E[d(cisHyp)]WYQCG-NH2; thioether N-13) |
| 1 to 9.9 nM | CCCC[C@H]1C(=O)N2CCC[C@@H]2C(=O)N[C@@H](CC(=O)O)C(=O)N[C@@H](C(C)C)C(=O)N(C)[C@@H](Cc2ccccc2)C(=O)N[C@@H](CCC(=O)O)C(=O)N2C[C@H](O)C[C@@H]2C(=O)N[C@@H](Cc2c[nH]c3ccccc23)C(=O)N[C@@H](Cc2ccc(O)cc2)C(=O)N[C@@H](CCCN)C(=O)N[C@H](C(=O)NCC(N)=O)CSCC(=O)N[C@@H](Cc2cc(F)c(F)c(F)c2)C(=O)N(C)[C@@H](Cc2ccc(O)cc2)C(=O)N1C [Example 10632] ({CH2CO}-[Phe(3,4,5-F3)][NMeY][NMeNle][dP]DV[NMeF]E[d(cisHyp)]WY[Orn]CG-NH2; thioether N-13) |
| 10 to 99.9 nM | CCCC[C@H]1C(=O)N2CCC[C@@H]2C(=O)N[C@@H](CC(=O)O)C(=O)N[C@@H](C(C)C)C(=O)N(C)[C@@H](Cc2ccccc2)C(=O)N[C@@H](CCC(=O)O)C(=O)N2C[C@H](O)C[C@@H]2C(=O)N[C@@H](Cc2c[nH]c3ccccc23)C(=O)N[C@@H](Cc2ccc(O)cc2)C(=O)N[C@@H](CCC(=O)O)C(=O)N[C@H](C(=O)NCC(N)=O)CSCC(=O)N[C@@H](Cc2cc(F)c(F)c(F)c2)C(=O)N(C)[C@@H](Cc2ccc(O)cc2)C(=O)N1C [Example 10633] ({CH2CO}-[Phe(3,4,5-F3)][NMeY][NMeNle][dP]DV[NMeF]E[d(cisHyp)]WYECG-NH2; thioether N-13) |
| 10 to 99.9 nM | CCCC[C@H]1C(=O)N2C[C@H](O)C[C@@H]2C(=O)N[C@@H](CC(=O)O)C(=O)N[C@@H](C(C)C)C(=O)N(C)[C@@H](Cc2ccccc2)C(=O)N[C@@H](CCC(=O)O)C(=O)N2C[C@H](O)C[C@@H]2C(=O)N[C@@H](Cc2c[nH]c3ccccc23)C(=O)N[C@@H](Cc2ccc(O)cc2)C(=O)N[C@@H](CCC(=O)O)C(=O)N[C@H](C(=O)NCC(N)=O)CSCC(=O)N[C@@H](Cc2cc(F)c(F)c(F)c2)C(=O)N(C)[C@@H](Cc2ccc(O)cc2)C(=O)N1C [Example 10637] ({CH2CO}-[Phe(3,4,5-F3)][NMeY][NMeNle][d(cisHyp)]DV[NMeF]E[d(cisHyp)]WYECG-NH2; thioether N-13) |
| 10 to 99.9 nM | CCCC[C@H]1C(=O)N2C[C@@H](O)C[C@@H]2C(=O)N[C@@H](CC(=O)O)C(=O)N[C@@H](C(C)C)C(=O)N(C)[C@H](Cc2ccccc2)C(=O)N[C@@H](Cc2ccc(O)cc2)C(=O)N2CCC[C@@H]2C(=O)N[C@@H]([C@@H](C)c2c[nH]c3ccccc23)C(=O)N[C@@H](Cc2ccc(O)cc2)C(=O)N[C@@H](CC(C)C)C(=O)N[C@H](C(=O)NCC(N)=O)CSCC(=O)N[C@@H](Cc2cc(F)c(F)c(F)c2)C(=O)N(C)[C@@H](Cc2ccccc2)C(=O)N1C [Example 10640] ({CH2CO}-[Phe(3,4,5-F3)][NMeF][NMeNle][dHyp]DV[dNMeF]Y[dP][Trp(βS-Me)]YLCG-NH2; thioether N-13) |
| 10 to 99.9 nM | CCCC[C@H]1C(=O)N(C)[C@@H](CCCC)C(=O)N[C@@H](CCCNC(=N)N)C(=O)N[C@H](C(=O)NCC(N)=O)CSCC(=O)N[C@@H](Cc2ccc(O)cc2)C(=O)N(C)[C@@H](C)C(=O)N[C@@H](CC(N)=O)C(=O)N2CCC[C@H]2C(=O)N[C@@H](CCN)C(=O)N[C@@H](CC(C)C)C(=O)N2C[C@H](O)C[C@H]2C(=O)N[C@@H](Cc2c[nH]c3ccccc23)C(=O)N[C@@H](C(C)(C)C)C(=O)N[C@@H](Cc2c[nH]c3ccccc23)C(=O)N1C [Example 11001] ({CH2CO}-Y[NMeA]NP[Dab]L[Hyp]W[Tle]W[NMeNle][NMeNle]RCG-NH2; thioether N-14) |
| 1 to 9.9 nM | CCCC[C@H]1C(=O)N(C)[C@@H](CCCC)C(=O)N[C@@H](CCCCN)C(=O)N[C@H](C(=O)NCC(N)=O)CSCC(=O)N[C@@H](Cc2ccc(O)cc2)C(=O)N(C)[C@@H](C)C(=O)N[C@@H](CC(=O)O)C(=O)N2CCC[C@H]2C(=O)N[C@@H](Cc2c[nH]cn2)C(=O)N[C@@H](CC(C)C)C(=O)N2C[C@H](O)C[C@H]2C(=O)N[C@@H](Cc2c[nH]c3ccccc23)C(=O)N[C@@H](CO)C(=O)N[C@@H](Cc2c[nH]c3ccccc23)C(=O)N1C [Example 11002] ({CH2CO}-Y[NMeA]DPHL[Hyp]WSW[NMeNle][NMeNle]KCG-NH2; thioether N-14) |
| 1 to 9.9 nM | CCCC[C@H]1C(=O)N(C)[C@@H](CCCC)C(=O)N[C@@H](CCCNC(=N)N)C(=O)N[C@H](C(=O)NCC(N)=O)CSCC(=O)N[C@@H](Cc2ccc(O)cc2)C(=O)N(C)[C@@H](C)C(=O)N[C@@H](CC(=O)O)C(=O)N2CCC[C@H]2C(=O)N[C@@H](Cc2c[nH]cn2)C(=O)N[C@@H](CC(C)C)C(=O)N2C[C@H](O)C[C@H]2C(=O)N[C@@H](Cc2c[nH]c3ccccc23)C(=O)N[C@@H](CCCCN)C(=O)N[C@@H](Cc2c[nH]c3ccccc23)C(=O)N1C [Example 11003] ({CH2CO}-Y[NMeA]DPHL[Hyp]WKW[NMeNle][NMeNle]RCG-NH2; thioether N-14) |

Same assay, conditions: PD-L1-His 10 nM, PD-1-Ig 20 nM; read-out: HTRF Human PD-L1/PD-1 Binding Assay IC50

| IC50 | SMILES |
| --- | --- |
| 12.5 nM | CCCC[C@H]1C(=O)N2C[C@H](O)C[C@@H]2C(=O)N[C@@H](CC(=O)O)C(=O)N[C@@H](C(C)C)C(=O)N(C)[C@@H](Cc2ccccc2)C(=O)N[C@@H](CCC(=O)O)C(=O)N2C[C@H](O)C[C@@H]2C(=O)N[C@@H](Cc2c[nH]c3ccccc23)C(=O)N[C@@H](Cc2ccc(O)cc2)C(=O)N[C@@H](CCCN)C(=O)N[C@H](C(=O)NCC(N)=O)CSCC(=O)N[C@@H](Cc2cc(F)c(F)c(F)c2)C(=O)N(C)[C@@H](Cc2ccc(O)cc2)C(=O)N1C [Example 10638] ({CH2CO}-[Phe(3,4,5-F3)][NMeY][NMeNle][d(cisHyp)]DV[NMeF]E[d(cisHyp)]WY[Orn]CG-NH2; thioether N-13) |
